Structures can show the parent of a compound that is named as a salt.

These results are taken from patent publication US10927126B2, “Positive allosteric modulators of the muscarinic acetylcholine receptor M4” (Vanderbilt University, priority 2016, dated 2021).

This assay concerns the target T1, Human M4 (Homo sapiens, UniProt P08173).
T1 sequence (P08173 1-479): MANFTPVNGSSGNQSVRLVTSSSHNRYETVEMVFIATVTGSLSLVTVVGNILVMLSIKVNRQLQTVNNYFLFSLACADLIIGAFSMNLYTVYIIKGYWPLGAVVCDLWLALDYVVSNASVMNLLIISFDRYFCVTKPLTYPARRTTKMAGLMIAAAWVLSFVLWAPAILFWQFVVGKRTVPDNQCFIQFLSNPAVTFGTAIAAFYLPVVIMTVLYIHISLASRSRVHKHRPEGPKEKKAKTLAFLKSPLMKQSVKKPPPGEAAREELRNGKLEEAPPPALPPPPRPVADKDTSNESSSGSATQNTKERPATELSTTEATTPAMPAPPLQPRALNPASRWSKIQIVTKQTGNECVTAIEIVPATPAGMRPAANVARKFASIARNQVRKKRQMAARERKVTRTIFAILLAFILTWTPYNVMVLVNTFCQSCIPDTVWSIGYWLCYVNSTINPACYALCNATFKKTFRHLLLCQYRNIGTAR
Briefly: mAChR M4 cell-based functional assay (calcium flux, potentiation of EC20 acetylcholine response). More on the design: Emax: dose or concentration left out as unconfirmed. (In general: A change in cytosolic calcium serves as a functional read-out for many receptors and channels.)

In general, EC50 refers to the midpoint of the concentration-response curve. One may read the Emax as the greatest response seen or fitted, relative to the assay's reference. As to `COc1ccc(CNc2nccc3c2sc2nnc(Cl)c(C)c23)cc1` [Compound 32, 3-chloro-N-(4-methoxybenzyl)-4-methylpyrido[4′,3′:4,5]thieno[2,3-c]pyridazin-8-amine], the EC50 was found to be 58.1 nM and the Emax came to 77.5%.

`Cc1nnc2sc3c(NCc4ccc(C(=O)N5CCOCC5)cc4)nccc3c2c1C` [Compound 13, [4-[[(3,4-dimethylpyrido[4′,3′:4,5]thieno[2,3-c]pyridazin-8-yl)amino]methyl]phenyl]-morpholino-methanone]: the EC50 is 66 nM and the Emax was 81.9%. Taken in the same sequence, the figures for `Cc1cc(C)c2c(n1)sc1c(NCc3ccc(C(C)(C)O)cc3F)nccc12` [Compound 27, 2-(4-(((2,4-dimethylthieno[2,3-b:5,4-c′]dipyridin-8-yl)amino)methyl)-3-fluorophenyl)propan-2-ol] were 1100 nM and 102%. In the same order, the values of `Cc1nnc2sc3c(NC4CCCC4)nccc3c2c1C` [Compound 5, N-Cyclopentyl-3,4-dimethyl-pyrido[4′,3′:4,5]thieno[2,3-c]pyridazin-8-amine Hydrochloride] are 12.3 nM and 80.3%. In the same order, the values of `COc1ccc(CNc2nccc3c2sc2nc(C)cc(C)c23)cc1F` [Compound 25, N-(3-fluoro-4-methoxybenzyl)-2,4-dimethylthieno[2,3-b:5,4-c′]dipyridin-8-amine] are more than 10000 nM and 90.3%. Take `Cc1c(Cl)nnc2sc3c(N4CCCC4)nccc3c12` [Compound 35, 3-chloro-4-methyl-8-(pyrrolidin-1-yl)pyrido[4′,3′:4,5]thieno[2,3-c]pyridazine]: the EC50 was 25.4 nM and the Emax is 101%. As to `Cc1nnc2sc3c(NCc4ccc(OCC5CC5)c(F)c4)nccc3c2c1C` [Compound 18, N-[[4-(cyclopropylmethoxy)-3-fluoro-phenyl]methyl]-3,4-dimethyl-pyrido[4′,3′:4,5]thieno[2,3-c]pyridazin-8-amine hydrochloride], the EC50 was found to be 679 nM and the Emax was determined as 88.6%. Taken in the same sequence, the figures for `Cc1c(C(F)F)nnc2sc3c(N4CCCC4)nccc3c12` [Compound 40, 3-(Difluoromethyl)-4-methyl-8-(pyrrolidin-1-yl)pyrido[4′,3′:4,5]thieno[2,3-c]pyridazine] were 374 nM and 55.9%.

Regarding `Cc1nnc2sc3c(NCc4ccc(C(F)(F)F)c(F)c4)nccc3c2c1C` [Compound 17, N-[[3-fluoro-4-(trifluoromethyl)phenyl]methyl]-3,4-dimethyl-pyrido[4′,3′:4,5]thieno[2,3-c]pyridazin-8-amine hydrochloride], the concentration for a half-maximal effect (EC50) was determined as 1720 nM and the Emax was determined as 66.6%. `COc1ccc(CNc2nccc3c2sc2nnc(C)c(C)c23)cc1` [Compound 9, N-[(4-methoxyphenyl)methyl]-3,4-dimethyl-pyrido[4′,3′:4,5]thieno[2,3-c]pyridazin-8-amine hydrochloride]: the Emax came out at 76.8%.

Consider `COc1nnc2sc3c(NC4CCC4)nccc3c2c1C` [Compound 39, N-cyclobutyl-3-methoxy-4-methylpyrido[4′,3′:4,5]thieno[2,3-c]pyridazin-8-amine], for which the EC50 was found to be 23.4 nM and the Emax was found to be 93.2%. Taken in the same sequence, the figures for `Cc1c(C(F)F)nnc2sc3c(N4CC(c5ccncc5)C4)nccc3c12` [Compound 42, 3-(difluoromethyl)-4-methyl-8-(3-(pyridin-4-yl)azetidin-1-yl)pyrido[4′3′:4,5]thieno[2,3-c]pyridazine] were 442 nM and 56.1%. Taken in the same sequence, the figures for `Cc1nnc2sc3c(NC4CN(c5ccc(F)c(F)c5)C4)nccc3c2c1C` [Compound 19, N-[1-(3,4-difluorophenyl)azetidin-3-yl]-3,4-dimethyl-pyrido[4′,3′:4,5]thieno[2,3-c]pyridazin-8-amine hydrochloride] were 164 nM and 74.2%.
